Measured values: patent US9175282B2, “Cellobiose 2-epimerase, its preparation and uses” (HAYASHIBARA CO., LTD., priority 2009, dated 2015)

Tests used:
[1] = tested on: recombinant cellobiose 2-epimerase; assay: Substrate specificity of cellobiose 2-epimerase by TLC; format: biochemical, Caldicellulosiruptor saccharolyticus ATCC43494; parameters: key to Action: −: No product is detected; ±: Some products are slightly detected; +: Some products are detected; ++: Some products are clearly detected; conditions: for Action: 2% (w/w) substrate, MOPS buffer pH 8.0, 500 units/g-substrate, 60° C., 24 hours, product spot on TLC; for Action of the enzyme on the saccharide: summary of Table 3
Experimental: Substrate specificity of the enzyme was investigated by allowing the purified preparation of the recombinant cellobiose 2-epimerase, obtained by the method of Experiment 4-4, to act on various saccharides. Substrate solutions were prepared by dissolving D-glucose, D-xylose, D-allose, D-ribose, D-galactose, D-fructose, D-mannose, D-psicose, D-tagatose, L-sorbose, L-rhamnose, L-ribose, trehalose, kojibiose, nigerose, isomaltose, neotrehalose, gentiobiose, lactose, sucrose, maltulose, palatinose, maltose, maltotriose, maltotetraose, maltopentaose, maltohexaose, maltoheptaose, cellobiose, cellotriose, cellotetraose, selaginose, isomaltosyl-glucoside, isomaltotriose, panose, isopanose, erlose, maltitol, maltotriitol, methyl-α-glucoside, methyl-β-glucoside, D-glucosamine, D-galactosamine, D-glucuronic acid, N-acetyl-glucosamine, or N-acetyl-galactosamine into MOPS buffer (pH 8.0) to give a final concentration of 2% (w/w) of saccharide and 40 mM buffer.
Then, each of the resulting substrate solutions was further admixed with 500 units/g-substrate, on a dry solid basis, of the purified preparation of recombinant cellobiose 2-epimerase, obtained by the method in Experiment 4-4, and followed by the enzyme reaction at 60° C. for 24 hours. After stopping the reaction by heating the reaction mixture at 100° C. for 10 minutes, each reaction mixture was subjected to TLC analysis under the conditions in Experiment 1-2 to examine the saccharides in each mixture before and after the reaction. The substrate specificity of the enzyme was judged by investigating whether the spot of the reaction product except for the substrate is detected in the TLC chromatogram or not, and the degree of the strength of the visualized spot.

[2] = tested on: recombinant cellobiose 2-epimerase; assay: Formation of isomerized saccharides from various saccharides, effect of the amount of enzyme; format: biochemical, Caldicellulosiruptor saccharolyticus ATCC43494
Experimental: Each of them was dissolved into 20 mM acetate buffer (pH 6.0), admixed with the purified preparation of the recombinant cellobiose 2-epimerase, obtained by the method in Experiment 4-4, and followed the enzyme reaction under the conditions of 10% (w/v) substrate concentration, 60° C. for 72 hours. The amount of enzyme was set to 130 or 500 units/g-substrate when monosaccharide was used as the substrate, and to 1 or 130 units/g-substrate when disaccharide or trisaccharide was used as the substrate. Each reaction mixture was heated at 100° C. for 10 minutes to stop the reaction and subjected to HPLC analysis to determine the contents of isomerized saccharide, on a dry solid basis. The contents of epilactose and lactulose in the reaction mixture obtained using lactose as substrate were determined by GC analysis described in Experiment 1-2.

[3] = 1 unit/g-substrate, 10% (w/v) substrate, pH 6.0, 60° C., 72 hours
[4] = 130 units/g-substrate, 10% (w/v) substrate, pH 6.0, 60° C., 72 hours
[5] = 500 units/g-substrate, 10% (w/v) substrate, pH 6.0, 60° C., 72 hours

Compound	Action [1]	also measured
Maltoheptaose	±	Action of the enzyme on the saccharide [1]: slightly acted on
O=C[C@H](O)[C@H](O)[C@H](O)[C@H](O)CO [D-Allose]	−	
CC(=O)N[C@H]1C(O)O[C@H](CO)[C@@H](O)[C@@H]1O (stereo partly drawn) [N-Acetyl-glucosamine]	−	
OC[C@H]1O[C@@](CO)(O[C@H]2O[C@H](CO)[C@@H](O)[C@H](O)[C@H]2O)[C@@H](O)[C@@H]1O [Sucrose]	−	
CO[C@H]1O[C@H](CO)[C@@H](O)[C@H](O)[C@H]1O [Methyl-α-glucoside]	−	
OC[C@H]1O[C@H](O[C@H]2[C@H](O)[C@@H](O)[C@@H](OC[C@H]3OC(O)[C@H](O)[C@@H](O)[C@@H]3O)O[C@@H]2CO)[C@H](O)[C@@H](O)[C@@H]1O (stereo partly drawn) [Isopanose]	−	
OC[C@H]1O[C@H](O[C@H]2[C@H](O)[C@@H](CO)OC(O)[C@@H]2O)[C@H](O)[C@@H](O)[C@@H]1O (stereo partly drawn) [Nigerose]	−	
Maltohexaose	±	Action of the enzyme on the saccharide [1]: slightly acted on
OC[C@H]1O[C@@](CO)(O[C@H]2O[C@H](CO)[C@@H](O[C@H]3O[C@H](CO)[C@@H](O)[C@H](O)[C@H]3O)[C@H](O)[C@H]2O)[C@@H](O)[C@@H]1O [Erlose]	−	
O=C[C@H](O)[C@@H](O)[C@H](O[C@@H]1O[C@H](CO)[C@@H](O)[C@H](O)[C@H]1O)[C@H](O)CO [Cellobiose]	++	Content of isomerized saccharide in the reaction mixture (%): Cellobiulose [2, 3]: 1.7%; Content of isomerized saccharide in the reaction mixture (%): Epicellobiose [2, 3]: 27.8%; Content of isomerized saccharide in the reaction mixture (%): Cellobiulose [2, 4]: 53.2%; Content of isomerized saccharide in the reaction mixture (%): Epicellobiose [2, 4]: 13.4%; Action of the enzyme on the substrate ([2]; summary of Table 5): relatively specifically acted; Action of the enzyme on the saccharide [1]: relatively strong specificity
O=C(CO)[C@H](O)[C@H](O)[C@H](O)CO [D-Psicose]	−	
Maltulose	±	Action of the enzyme on the saccharide [1]: slightly acted on
N[C@H]1C(O)O[C@H](CO)[C@@H](O)[C@@H]1O (stereo partly drawn) [D-Glucosamine]	−	
OC[C@H]1O[C@@H](O[C@H]2O[C@H](CO)[C@@H](O)[C@H](O)[C@H]2O)[C@H](O)[C@@H](O)[C@@H]1O [Neotrehalose]	−	
OC[C@H]1O[C@@H](O[C@H]2[C@H](O)[C@@H](O)[C@H](O[C@H]3[C@H](O)[C@@H](O)[C@H](O[C@H]4[C@H](O)[C@@H](O)C(O)O[C@@H]4CO)O[C@@H]3CO)O[C@@H]2CO)[C@H](O)[C@@H](O)[C@@H]1O (stereo partly drawn) [Cellotetraose]	++	Action of the enzyme on the saccharide [1]: relatively strong specificity
OC[C@H]1O[C@H](O[C@H]2[C@H](O)[C@@H](O)[C@@H](O[C@H]3[C@H](O)[C@@H](O)[C@@H](O[C@H]4[C@H](O)[C@@H](O)C(O)O[C@@H]4CO)O[C@@H]3CO)O[C@@H]2CO)[C@H](O)[C@@H](O)[C@@H]1O (stereo partly drawn) [Maltotetraose]	±	Action of the enzyme on the saccharide [1]: slightly acted on
OC[C@H]1O[C@H](O[C@H]2[C@H](O)[C@@H](O)[C@H](O)O[C@@H]2CO)[C@H](O)[C@@H](O)[C@@H]1O [Maltose]	+	Content of isomerized saccharide in the reaction mixture (%): Epimaltose [2, 4]: 22.2%; Content of isomerized saccharide in the reaction mixture (%): Maltulose [2, 4]: 7.7%; Action of the enzyme on the saccharide [1]: acted on
OC[C@H]1O[C@H](OC[C@H]2O[C@H](OC[C@H]3OC(O)[C@H](O)[C@@H](O)[C@@H]3O)[C@H](O)[C@@H](O)[C@@H]2O)[C@H](O)[C@@H](O)[C@@H]1O (stereo partly drawn) [Isomaltotriose]	−	
Isomaltosyl-glucoside	−	
OC[C@H]1O[C@@H](O[C@H]2[C@H](O)[C@@H](O)[C@H](O[C@H]3[C@H](O)[C@@H](O)C(O)O[C@@H]3CO)O[C@@H]2CO)[C@H](O)[C@@H](O)[C@@H]1O (stereo partly drawn) [Cellotriose]	++	Action of the enzyme on the saccharide [1]: relatively strong specificity
CC(=O)N[C@H]1C(O)O[C@H](CO)[C@H](O)[C@@H]1O (stereo partly drawn) [N-Acetyl-galactosamine]	−	

Compound	Action [1]	also measured
OC[C@H]1O[C@H](OC[C@H]2O[C@H](O[C@H]3[C@H](O)[C@@H](O)C(O)O[C@@H]3CO)[C@H](O)[C@@H](O)[C@@H]2O)[C@H](O)[C@@H](O)[C@@H]1O (stereo partly drawn) [Panose]	−	
Maltopentaose	±	Action of the enzyme on the saccharide [1]: slightly acted on
C[C@H](O)[C@H](O)[C@@H](O)[C@@H](O)C=O [L-Rhamnose]	−	
O=C[C@H](O)[C@H](O)[C@H](O)CO [D-Ribose]	−	
O=C[C@H](O)[C@@H](O)[C@H](O)CO [D-Xylose]	−	
Maltotriose	+	Content of isomerized saccharide in the reaction mixture (%): Epimaltotriose [2, 4]: 23.3%; Action of the enzyme on the saccharide [1]: acted on
OC[C@H]1O[C@H](O[C@H]2O[C@H](CO)[C@@H](O)[C@H](O)[C@H]2O[C@H]2O[C@H](CO)[C@@H](O)[C@H](O)[C@H]2O)[C@H](O)[C@@H](O)[C@@H]1O [Selaginose]	−	
CO[C@@H]1O[C@H](CO)[C@@H](O)[C@H](O)[C@H]1O [Methyl-β-glucoside]	−	
OC[C@H]1O[C@H](OC[C@H]2OC(O)(CO)[C@@H](O)[C@@H]2O)[C@H](O)[C@@H](O)[C@@H]1O (stereo partly drawn) [Palatinose]	−	
OC[C@H]1O[C@H](OC[C@H]2O[C@H](O)[C@H](O)[C@@H](O)[C@@H]2O)[C@H](O)[C@@H](O)[C@H]1O [Gentibiose]	−	
O=C[C@@H](O)[C@@H](O)[C@@H](O)CO [L-Ribose]	−	
OC[C@H]1O[C@H](O[C@H]2C(O)O[C@H](CO)[C@@H](O)[C@@H]2O)[C@H](O)[C@@H](O)[C@@H]1O (stereo partly drawn) [Kojibiose]	−	
O=C(CO)[C@@H](O)[C@H](O)[C@@H](O)CO [L-Sorbose]	−	
OC[C@@H](O)[C@@H](O[C@H]1O[C@H](CO)[C@@H](O)[C@H](O)[C@H]1O)[C@H](O)[C@@H](O)CO [Maltitol]	−	
OC[C@@H](O)[C@@H](O[C@H]1O[C@H](CO)[C@@H](O[C@H]2O[C@H](CO)[C@@H](O)[C@H](O)[C@H]2O)[C@H](O)[C@H]1O)[C@H](O)[C@@H](O)CO [Maltotriitol]	−	
O=C[C@@H](O)[C@@H](O)[C@@H](O)[C@H](O)CO [D-Talose]		Content of isomerized saccharide in the reaction mixture (%): D-Galactose [2, 5]: 27.2%; Content of isomerized saccharide in the reaction mixture (%): D-Tagatose [2, 5]: 17.9%
O=C[C@H](O)[C@@H](O)[C@H](O)[C@H](O)C(=O)O [D-Glucuronic acid]	−	
N[C@H]1C(O)O[C@H](CO)[C@H](O)[C@@H]1O (stereo partly drawn) [D-Galactosamine]	−	
OC[C@H]1O[C@H](OC[C@H]2OC(O)[C@H](O)[C@@H](O)[C@@H]2O)[C@H](O)[C@@H](O)[C@@H]1O (stereo partly drawn) [Isomaltose]	−	
OC[C@H]1O[C@H](O[C@H]2O[C@H](CO)[C@@H](O)[C@H](O)[C@H]2O)[C@H](O)[C@@H](O)[C@@H]1O [Trehalose]	−	
